Experimental data: patent US9810687B2, “Nanocomposites and methods of making same” (BOARD OF TRUSTEES OF THE UNIVERSITY OF ARKANSAS, priority 2013, dated 2017)

Columns and labels:
MCF-7 = assay: Cytotoxicity of GA delivered by Gn and SWCNT, breast cancer cells; type: cell-based, human; conditions: breast cancer cells in vitro
Description: (§1) In this example, Gn and SWCNT were used to deliver the natural low-toxicity drug GA to breast and pancreatic cancer cells in vitro, and the effectiveness of this complex in suppressing cellular integrity was assessed. Cytotoxicity was assessed by measuring lactate dehydrogenase release, mitochondria dehydrogenase activity, mitochondrial membrane depolarization, DNA fragmentation, intracellular lipid content, and membrane permeability/caspase activity. […] This analysis represents a first step toward assessing their effectiveness in more complex, targeted, nanodelivery systems.
(§2) Gn and SWCNT (10 μg/ml) were mixed with GA (0.5, 0.75 and 1 μg/ml) to be described as GA+Gn and GA+SWCNT. First, the samples were vortexed at a high speed for at least 4 h to allow the drug to bind to the nanomaterials via π-π stacking. […] The loading concentrations of the GA on Gn and SWCNT were determined by UV-Vis absorbance at 360 nm measured using a Shimadzu UV-3600 spectrophotometer (Shimadzu Scientific Instruments, Colombia, Me., USA).
(§3) The amount of drug loaded was calculated by peak absorbance at 360 nm after subtracting the background of absorbance from Gn and SWCNT. It is determined that, after vortexing, 98% of the free GA was bound to the Gn (GA−Gn=0.98: 10 μg/ml) and that 88% was bound to the SWCNT (GA−SWCNT=0.88: 10 μg/ml).

Panc-1 = assay: Cytotoxicity of GA delivered by Gn and SWCNT, pancreatic cancer cells; type: cell-based, human; conditions: pancreatic cancer cells in vitro
Description: as §1, §2, §3

[1] = tested on: human pancreatic cancer cell line Panc-1; assay: Anticancer/apoptotic effects of PTL, DMAPT and their fGn complexes; conditions: drug alone or as mixture with fGn
Description: A water-soluble PTL analog, dimethylaminoparthenolide (DMAPT), was also examined for comparison with the anticancer efficacy of our PTL-fGn complex.
PTL was obtained from Sigma-Aldrich (USA). […] PTL and DMAPT were dissolved in DMSO to create 10 mM stock solutions. To create the PTL-fGn and DMAPT-fGn complexes, the drug was added to fGn solution in media (final drug-fGn complex concentrations were 1, 10, 20, 30, 50, and 100 mM drug and 10 mg/ml fGn), sonicated for 1 h, and then stored at 4° C. before being incubated with cancer cell, such as, Panc-1 cells, or being delivered to a patient.

SMILES	antiproliferative effects upon nanodelivery (MCF-7)	antiproliferative effects upon nanodelivery (Panc-1)	IC50 [1]
CC(C)=CCC[C@]1(C)C=Cc2c(O)c3c(c(CC=C(C)C)c2O1)O[C@]12C(=C[C@@H]4C[C@H]1C(C)(C)O[C@@]2(C/C=C(/C)C(=O)O)C4=O)C3=O [GA, Gambogic Acid]	significantly enhanced	significantly enhanced	
C/C1=C\CC[C@@]2(C)O[C@@H]2[C@H]2OC(=O)[C@H](CN(C)C)[C@@H]2CC1 [DMAPT, dimethylaminoparthenolide]			significantly higher than that for PTL-fGn
